According to doi:10.1101/2023.11.24.568596v1 (biorxiv, 2023):
Each block holds one molecule with its values, some of them ahead of it.

What was measured:
Details in all cases: binder
BMPR2 = target: T1, BMPR2 (Homo sapiens, UniProt Q13873)
T1 sequence (Q13873 1-1038): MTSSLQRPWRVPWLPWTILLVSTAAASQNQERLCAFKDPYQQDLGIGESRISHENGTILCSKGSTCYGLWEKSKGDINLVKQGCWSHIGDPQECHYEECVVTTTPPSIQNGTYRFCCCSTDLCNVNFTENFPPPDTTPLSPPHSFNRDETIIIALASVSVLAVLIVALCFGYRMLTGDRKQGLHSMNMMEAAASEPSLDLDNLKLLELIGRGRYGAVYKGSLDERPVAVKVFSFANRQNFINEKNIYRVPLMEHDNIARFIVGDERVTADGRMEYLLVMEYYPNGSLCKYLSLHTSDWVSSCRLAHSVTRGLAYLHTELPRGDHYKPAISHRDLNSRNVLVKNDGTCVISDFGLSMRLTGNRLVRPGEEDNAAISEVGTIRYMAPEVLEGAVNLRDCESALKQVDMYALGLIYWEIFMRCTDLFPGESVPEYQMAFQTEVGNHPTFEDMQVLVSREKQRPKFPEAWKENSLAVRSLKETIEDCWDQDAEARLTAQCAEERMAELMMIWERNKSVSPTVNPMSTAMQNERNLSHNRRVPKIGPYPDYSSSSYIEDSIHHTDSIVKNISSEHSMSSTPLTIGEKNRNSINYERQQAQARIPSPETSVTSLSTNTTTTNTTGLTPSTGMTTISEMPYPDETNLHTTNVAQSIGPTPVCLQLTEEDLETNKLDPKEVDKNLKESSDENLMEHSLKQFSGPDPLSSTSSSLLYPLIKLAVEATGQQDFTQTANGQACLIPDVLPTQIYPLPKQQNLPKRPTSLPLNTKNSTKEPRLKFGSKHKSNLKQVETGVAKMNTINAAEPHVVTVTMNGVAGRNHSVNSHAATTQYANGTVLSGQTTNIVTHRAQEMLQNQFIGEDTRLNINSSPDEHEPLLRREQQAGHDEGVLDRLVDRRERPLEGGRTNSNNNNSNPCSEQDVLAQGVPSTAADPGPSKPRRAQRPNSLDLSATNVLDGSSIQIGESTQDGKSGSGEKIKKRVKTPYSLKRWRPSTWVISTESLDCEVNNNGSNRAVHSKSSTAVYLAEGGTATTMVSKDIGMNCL

AurA = target: T2, AurA (Homo sapiens, UniProt O14965)
T2 sequence (O14965 1-403): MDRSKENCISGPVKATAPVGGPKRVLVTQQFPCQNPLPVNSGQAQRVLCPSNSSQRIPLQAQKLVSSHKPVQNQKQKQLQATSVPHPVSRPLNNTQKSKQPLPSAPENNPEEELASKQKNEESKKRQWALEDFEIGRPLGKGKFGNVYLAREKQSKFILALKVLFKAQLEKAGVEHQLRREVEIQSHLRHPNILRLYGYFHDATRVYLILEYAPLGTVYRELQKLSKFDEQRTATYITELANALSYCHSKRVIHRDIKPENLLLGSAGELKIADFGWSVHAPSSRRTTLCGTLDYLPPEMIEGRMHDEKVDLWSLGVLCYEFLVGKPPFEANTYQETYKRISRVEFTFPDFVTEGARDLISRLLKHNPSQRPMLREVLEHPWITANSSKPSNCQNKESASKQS

p38a = p38a (Homo sapiens, UniProt Q16539)
MER = target: T3, MER (Homo sapiens, UniProt Q12866)
T3 sequence (Q12866 1-999): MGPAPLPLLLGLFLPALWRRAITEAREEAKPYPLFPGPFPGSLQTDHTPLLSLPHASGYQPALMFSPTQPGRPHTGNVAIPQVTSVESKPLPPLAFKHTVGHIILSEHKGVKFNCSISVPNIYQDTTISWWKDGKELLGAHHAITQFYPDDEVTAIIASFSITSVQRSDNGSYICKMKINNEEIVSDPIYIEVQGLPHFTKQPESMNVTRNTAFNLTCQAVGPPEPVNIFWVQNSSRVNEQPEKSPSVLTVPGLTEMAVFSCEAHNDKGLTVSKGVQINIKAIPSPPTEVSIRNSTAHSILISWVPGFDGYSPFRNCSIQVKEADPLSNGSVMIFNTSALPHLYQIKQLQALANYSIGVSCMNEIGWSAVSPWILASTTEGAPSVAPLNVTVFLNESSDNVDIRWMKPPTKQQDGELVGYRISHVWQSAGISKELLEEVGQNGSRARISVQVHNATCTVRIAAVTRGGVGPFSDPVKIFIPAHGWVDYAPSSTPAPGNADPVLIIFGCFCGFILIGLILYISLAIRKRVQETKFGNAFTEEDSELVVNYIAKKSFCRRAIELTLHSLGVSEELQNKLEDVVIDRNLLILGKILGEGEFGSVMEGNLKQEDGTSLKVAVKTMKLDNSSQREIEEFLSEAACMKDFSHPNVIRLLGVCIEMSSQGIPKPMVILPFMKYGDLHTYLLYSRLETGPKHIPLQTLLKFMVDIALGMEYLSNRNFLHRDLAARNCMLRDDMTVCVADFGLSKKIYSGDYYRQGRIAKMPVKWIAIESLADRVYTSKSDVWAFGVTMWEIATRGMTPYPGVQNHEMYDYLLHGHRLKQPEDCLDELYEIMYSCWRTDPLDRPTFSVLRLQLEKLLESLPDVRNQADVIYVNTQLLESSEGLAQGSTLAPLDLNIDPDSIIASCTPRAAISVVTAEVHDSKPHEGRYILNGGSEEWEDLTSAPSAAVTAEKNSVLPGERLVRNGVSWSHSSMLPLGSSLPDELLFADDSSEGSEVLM

JNK1 = JNK1 (Homo sapiens, UniProt P45983)
Chain of JNK1 (P45983 whole entry): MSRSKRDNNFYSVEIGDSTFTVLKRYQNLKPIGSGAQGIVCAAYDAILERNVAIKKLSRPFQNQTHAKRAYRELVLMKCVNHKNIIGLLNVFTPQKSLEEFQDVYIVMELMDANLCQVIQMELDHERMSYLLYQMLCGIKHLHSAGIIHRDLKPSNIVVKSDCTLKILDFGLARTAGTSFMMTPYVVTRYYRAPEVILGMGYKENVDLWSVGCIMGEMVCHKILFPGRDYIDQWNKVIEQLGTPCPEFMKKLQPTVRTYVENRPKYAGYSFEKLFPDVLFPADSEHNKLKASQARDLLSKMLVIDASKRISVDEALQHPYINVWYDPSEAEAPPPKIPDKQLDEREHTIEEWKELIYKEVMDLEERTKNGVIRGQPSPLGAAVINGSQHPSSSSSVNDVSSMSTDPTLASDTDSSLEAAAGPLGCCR

Chain of p38a (Q16539 whole entry): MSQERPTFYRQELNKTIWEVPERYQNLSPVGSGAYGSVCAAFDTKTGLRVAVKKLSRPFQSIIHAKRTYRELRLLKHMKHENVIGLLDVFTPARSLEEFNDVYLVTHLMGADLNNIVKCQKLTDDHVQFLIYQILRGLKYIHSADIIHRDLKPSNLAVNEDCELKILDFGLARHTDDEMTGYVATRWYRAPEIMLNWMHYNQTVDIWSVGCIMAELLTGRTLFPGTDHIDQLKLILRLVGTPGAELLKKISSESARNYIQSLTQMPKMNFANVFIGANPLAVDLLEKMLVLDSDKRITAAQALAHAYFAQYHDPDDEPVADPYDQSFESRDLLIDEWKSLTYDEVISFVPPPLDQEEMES

Structure (SMILES): CNc1ncc2cc(-c3ccc(-c4cccc(C)n4)cc3Cl)c(=O)n(CCC3CCNCC3)c2n1 [compound 22, 6-(2-Chloro-4-(6-methylpyridin-2-yl)phenyl)-2-(methylamino)-8-(2-(piperidin-4-yl)ethyl)pyrido[2,3-d]pyrimidin-7(8H)-one]
ΔTm 22 (BMPR2): -0.3 °C | ΔTm 22 (AurA): 11.4 °C | ΔTm 22 (p38a): 0.7 °C | ΔTm 22 (MER): 2.6 °C | ΔTm 22 (JNK1): 4.0 °C

Structure (SMILES): Cc1cccc(-c2ccc(-c3cc4cnc(NCCCc5ccc(N)cc5)nc4n(CCCCN)c3=O)c(Cl)c2)n1 [compound 25, 8-(4-Aminobutyl)-2-((3-(4-aminophenyl)propyl)amino)-6-(2-chloro-4-(6-methylpyridin-2-yl)phenyl)pyrido[2,3-d]pyrimidin-7(8H)-one]
ΔTm 25 (BMPR2): -0.2 °C | ΔTm 25 (AurA): 1.8 °C | ΔTm 25 (p38a): 6.1 °C | ΔTm 25 (MER): 1.6 °C | ΔTm 25 (JNK1): 4.5 °C

Structure (SMILES): Cc1cccc(-c2ccc(-c3cc4cnc(NCCCN5CCOCC5)nc4n(CCCCN)c3=O)c(Cl)c2)n1 [compound 26, MR26]
ΔTm MR26 (26) (BMPR2): -0.2 °C | ΔTm MR26 (26) (AurA): -0.9 °C | ΔTm MR26 (26) (p38a): 4.0 °C | ΔTm MR26 (26) (MER): 1.0 °C | ΔTm MR26 (26) (JNK1): 0.8 °C

Structure (SMILES): CNc1ncc2cc(-c3ccc(-c4cccc(C)n4)cc3Cl)c(=O)n(C[C@H]3CC[C@H](N)CC3)c2n1 [compound 23, 23]
ΔTm 23 (BMPR2): -0.7 °C | ΔTm 23 (AurA): 13.1 °C | ΔTm 23 (p38a): 6.7 °C | ΔTm 23 (MER): 3.1 °C | ΔTm 23 (JNK1): 4.5 °C

The remaining lines, values ahead:

ΔTm MRLW5 (20) (BMPR2): -0.1 °C | ΔTm MRLW5 (20) (AurA): 11.8 °C | ΔTm MRLW5 (20) (p38a): 1.0 °C | ΔTm MRLW5 (20) (MER): 2.5 °C | ΔTm MRLW5 (20) (JNK1): 4.2 °C
Structure (SMILES): CNc1ncc2cc(-c3ccc(-c4cccc(C)n4)cc3Cl)c(=O)n(CCCCN)c2n1 [compound 20, MRLW5]

ΔTm MR24 (24) (BMPR2): -0.1 °C | ΔTm MR24 (24) (AurA): -1.7 °C | ΔTm MR24 (24) (p38a): 2.8 °C | ΔTm MR24 (24) (MER): -0.7 °C | ΔTm MR24 (24) (JNK1): 0.7 °C
Structure (SMILES): Cc1cccc(-c2ccc(-c3cc4cnc(NC(CO)CO)nc4n(CCCCN)c3=O)c(Cl)c2)n1 [compound 24, 8-(4-Aminobutyl)-6-(2-chloro-4-(6-methylpyridin-2-yl)phenyl)-2-((1,3-dihydroxypropan-2-yl)amino)pyrido[2,3-d]pyrimidin-7(8H)-one]
